We go through two compounds from paper PMC9611657, “Bruton’s Tyrosine Kinase Inhibitor Zanubrutinib Effectively Modulates Cancer Resistance by Inhibiting Anthracycline Metabolism and Efflux” (Pharmaceutics, 2022).

The target of experiment [1] is T1, aldo-keto reductase 1C3 (AKR1C3) (Homo sapiens, UniProt P42330).
T1 construct: human recombinant AKR1C3 from E. coli BL21(DE3), HisTrap purified
T1 sequence (P42330 1-323): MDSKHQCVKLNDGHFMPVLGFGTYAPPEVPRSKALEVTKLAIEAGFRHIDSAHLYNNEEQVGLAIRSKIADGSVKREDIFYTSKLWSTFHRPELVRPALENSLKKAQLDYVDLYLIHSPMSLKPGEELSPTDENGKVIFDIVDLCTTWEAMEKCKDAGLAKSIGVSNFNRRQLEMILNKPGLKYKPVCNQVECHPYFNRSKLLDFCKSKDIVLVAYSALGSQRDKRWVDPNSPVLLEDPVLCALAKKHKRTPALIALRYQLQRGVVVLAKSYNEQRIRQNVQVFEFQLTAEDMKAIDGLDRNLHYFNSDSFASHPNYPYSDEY
Description: reduction to daunorubicinol by recombinant enzyme (DAUN […]), UHPLC, Michaelis-Menten kinetics. The experiment is classed as biochemical.

Experiment [2] concerns the target T1, aldo-keto reductase 1C3 (AKR1C3). Description: inhibition of daunorubicin reduction by recombinant enzyme, UHPLC of DAUN-OL, Michaelis-Menten/Lineweaver-Burk. The experiment is classed as biochemical.

For `COc1cccc2c1C(=O)c1c(O)c3c(c(O)c1C2=O)C[C@@](O)(C(C)=O)C[C@@H]3O[C@H]1C[C@H](N)[C@H](O)[C@H](C)O1` [DAUN, Daunorubicin], the “reduction to daunorubicinol by recombinant enzyme (DAUN 200-2000 μM), UHPLC, Mic” value in experiment [1] is “AKR1C3 was incubated with the substrate DAUN, with or without ZAN”. In general, Ki refers to a dissociation constant, usually derived from enzyme kinetics or from competition with a known ligand. Take `C=CC(=O)N1CCC([C@@H]2CCNc3c(C(N)=O)c(-c4ccc(Oc5ccccc5)cc4)nn32)CC1` [ZAN, Zanubrutinib]: the Ki in experiment [2] is 2900 nM.
